Data set [1] relates to fetal hemoglobin gene expression (HBG1) in human erythroid progenitor cells. The experiment in a line: Humanized mouse model: fetal hemoglobin mRNA (HBG1, HBB) in bone marrow by Nanostring. It is filed as in vivo, NBSGW mice reconstituted with human CD34+ cells. The following applies: for HBG1 expression compared to vehicle (HBG1 alone or HBG1 to total beta hemoglobin mRNA): FIGS. 11A-11C, various doses and treatment regimes. From the text: (§1) Results: To evaluate induction of target cell activity in the bone marrow, a humanized mouse model was developed. This model entails the reconstitution of human hematopoietic progenitor cells within the bone marrow of immunodeficient nonirradiated NOD.Cg-KitW-41J Tyr^+ Prkdc^scid Il2rg^tmlwjl/ThomJ (NBSGW) strain recipient mice. These mice are competent to engraft and differentiate human erythroid progenitor cells that express human adult hemoglobin mRNA and protein subunits within bone marrow.
(§2) Based on these exposure results, humanized mice were treated with either the clinical standard of care compound, hydroxyurea (50 mg/kg; bid), or I-73, at 25 and 100 mg/kg (bid), by oral gavage over a three-week period. At the end of the treatment period, bone marrow was harvested for flow cytometry, as well as for assessment of HbF protein and fetal hemoglobin (HBG1) mRNA levels. Levels of both HbF protein and HBG1 mRNA were normalized to the percentage of human erythroid progenitor cells in the bone marrow of each mouse as determined by immunofluorescence staining for human Glycophorin A cell membrane expression. […] In addition, relative levels of fetal hemoglobin to those of potentially sickling-prone adult hemoglobin (HBB) was assessed.
(§3) Female, 6-week-old NOD.Cg-Kit^W-41J Tyr^+ Prkdc^scid Il2rg^tm1Wjl/ThomJ (NBSGW) mice (Jackson Laboratory strain #[…]) were used for these studies. The mice were acclimatized to laboratory conditions for 5 days prior to inoculation.
(§4) GCSF-mobilized human CD34+ cells were removed from liquid nitrogen storage, thawed in a 37° C. water bath and transferred quickly into a 50 mL conical tube. Cryovial was rinsed once with thaw buffer, 0.1% BSA in phosphate buffered saline (PBS), and buffer was transferred and combined with the original contents in the 50 mL conical tube. Next, doubling volumes of thaw buffer was added to the conical and gently swirled for ˜30 seconds to one minute until the volume in the conical was 32 mL. Cells and buffer were centrifuged at 300G for 8 minutes, and the supernatants were aspirated. Cells were counted by resuspending in 1 mL of thawing buffer per million of cells to a target concentration range of 0.5 to 2M/ml and counting with AOPI (1:1) on a luna cell counter to confirm the concentration of cells/mL. The cell concentration was adjusted to 3×10^6 cells/ml. For each mouse, 300 thousand cells in 0.1 ml were injected into the tail vein with a 25-gauge needle.
(§5) On day 56 after human cell adoptive transfer, whole blood was collected from each mouse by submandibular bleed and a 100 μL sample of EDTA whole blood was transferred to a 2 ml tube containing 1.8 mL ACK Lysing Buffer at room temperature (RT), and then inverted to mix. Samples were incubated at RT for 15 min in the dark to lyse. After lysis, samples are centrifuged at 500×g for 5 minutes at RT to enable supernatant decanting. Remaining cells were washed with 1 mL of PBS-0.5% BSA and centrifuged at 500×g for 5 minutes at 4° C. Supernatant was decanted and cells were stained with leukocyte markers (human and mouse CD45 antibodies; BD347464, BD557659) to confirm human cell engraftment. Mice having less than one percent, or greater than ten percent, human CD45 positive cells were excluded from the subsequent study. Remaining mice were then randomized into treatment groups based on percentage of human cell engraftment. Each treatment group included 10-11 mice.
(§6) Compound I-73 was dissolved in a 5% Cremophor RH40, 20% hydroxylpropyl-β-cyclodextrin solution. Hydroxyurea was solubilized in PBS. Formulations were prepared fresh daily. Commencing on day 84 post human cell engraftment, mice were treated by oral gavage with either I-73, hydroxyurea or their respective vehicles, for a period of three weeks using either once daily (QD) or twice daily (BID) dosing regimens. Mice were monitored daily for body weight and condition. […]

Data set [2] has as its system HbF in GlyA+ human erythroid precursor cells. The experiment in a line: Humanized mouse model: F-cells (GlyA+ cells with detectable HbF) by flow cytometry. The data set is classed as in vivo, NBSGW mice reconstituted with human CD34+ cells. To be noted: FIG. 10A, all treatment groups. Here is the method:
FIG. 5 is FACS results showing the percentage of GlyA+ cells which also have detectable HbF protein levels in them (called F-cells).
as §3
as §4, with “Cells and buffer were centrifuged at 300G for 8 minutes, and the supernatants were aspirated.” left out, “The cell concentration was adjusted to 3×10^6 cells/ml. For each mouse, 300 thousand cells in 0.1 ml were injected into the tail vein with a 25-gauge needle.” left out
Compound I-73 was dissolved in a 5% Cremophor RH40, 20% hydroxylpropyl-β-cyclodextrin solution. […] Mice were monitored daily for body weight and condition. […]
After 21 days of dosing, all mice were euthanized and prepared for bone marrow collection. […] Extracted cells were counted and aliquoted to prepare for analysis. […]

In data set [3] the test system is fetal hemoglobin protein (HbF) in human erythroid progenitor cells. The experiment in a line: Humanized mouse model: HbF protein in bone marrow by AlphaLISA. The data set is classed as in vivo, NBSGW mice reconstituted with human CD34+ cells. To be noted: for HbF protein levels (AlphaLISA) normalized for % GlyA+ cells: FIG. 10B, most treatment groups.
Excerpt: as §1, §2, §3, §4, §5, §6

Data set [4] is described as follows: Preliminary pharmacokinetic studies (serum exposure). It is filed as in vivo, wild-type mice.
The mark [5] stands for this setting: humanized mouse model, human erythroid progenitor cells, dose not given at this place.

For `CCN1C(=O)[C@@H](NC(=O)c2cccc(C(F)(F)F)c2)[C@@H](c2ccc(F)cc2)c2c([C@@H](C)NC#N)nn(-c3ccccc3)c21` [Compound I-73, N-((4S,5S)-3-((R)-1-cyanamidoethyl)-7-ethyl-4-(4-fluorophenyl)-6-oxo-1-phenyl-4,5,6,7-tetrahydro-1H-pyrazolo[3,4-b]pyridin-5-yl)-3-(trifluoromethyl)benzamide], the “HBG1 mRNA transcript levels (Nanostring)” value in data set [1] (25 and 100 mg/kg bid, oral gavage, three weeks (FIG. 1B)) is recorded as “enhanced transcript levels”. Moreover, in data set [1] (25 and 100 mg/kg bid, oral gavage, three weeks (FIG. 1C)), the “ratios of HBG1 to HBB mRNA compared with hydroxyurea (50 mg/kg bid)” value is on record as “significantly greater ratios”. The “HBG1 expression compared to vehicle (HBG1 alone or HBG1 to total beta hemoglobin mRNA)” value in data set [1] is recorded as “increased HBG1 expression compared to vehicle”. For the same compound, in data set [1] (setting [5]), the “induction of fetal hemoglobin mRNA (HBG1)” value was “an induction of both HBG1 mRNA and HbF protein was observed”. Further, the “ratio of fetal HBG1 hemoglobin mRNA to adult hemoglobin mRNA (HBB), compared with HU” value in data set [1] (humanized mouse model, dose not given at this place) is on record as “significantly greater than HU standard of care”. In data set [2], the “percentage of HbF expression in GlyA+ cells (F-cell analysis)” value is reported as “increased percentage of HbF expression in GlyA+ cells”. In addition, the “HbF protein levels in bone marrow (AlphaLISA) compared to vehicle-treated mice” value in data set [3] (25 and 100 mg/kg bid, oral gavage, three weeks, normalized to % GlyA+ cells (FIG. 1A)) is recorded as “significantly increases”. Further, the “HbF protein levels (AlphaLISA) normalized for % GlyA+ cells” value in data set [3] is on record as “increased HbF protein levels”. The “difference in HbF protein levels between the 25 and the 100 mg/kg doses” value in data set [3] (bid, oral gavage, three weeks) was “no significant difference”. Moreover, in data set [3] (setting [5]), the “induction of fetal hemoglobin protein (HbF)” value is “an induction of both HBG1 mRNA and HbF protein was observed”. Further, the “serum concentrations relative to that required to inhibit DCN-1” value in data set [4] (dosing at 25 and 100 mg/kg) was “equivalent to or greater than that required to inhibit DCN-1”. The “in vivo serum exposure levels” value in data set [4] (wild-type mice) was “predicted to be sufficient for fetal hemoglobin induction”.
For the compound `CCN1C(=O)[C@@H](NC(=O)c2cccc(C(F)(F)F)c2)[C@@H](C2CC2)c2c(C(=O)N3[C@H](C#N)C[C@H]4C[C@H]43)nn(C3CCOCC3)c21` [Compound I-256, N-((4S,5S)-3-((1R,3S,5R)-3-cyano-2-azabicyclo[3.1.0]hexane-2-carbonyl)-4-cyclopropyl-7-ethyl-6-oxo-1-(tetrahydro-2H-pyran-4-yl)-4,5,6,7-tetrahydro-1H-pyrazolo[3,4-b]pyridin-5-yl)-3-(trifluoromethyl)benzamide], the “HBG1 expression compared to vehicle (HBG1 alone or HBG1 to total beta hemoglobin mRNA)” value in data set [1] is given as “increased HBG1 expression compared to vehicle”. Moreover, the “percentage of HbF expression in GlyA+ cells (F-cell analysis)” value in data set [2] was “increased percentage of HbF expression in GlyA+ cells”. Moreover, in data set [3], the “HbF protein levels (AlphaLISA) normalized for % GlyA+ cells” value is “increased HbF protein levels”.

The values above are taken from patent US20250163057A1, “DCN-1 MODULATING COMPOUNDS AND METHODS OF USE THEREOF” (Cellarity, Inc., priority 2023, published 2025).
